According to US8772504B2, “Substituted benzoxazole, benzimidazole, oxazolopyridine and imidazopyridine derivatives as gamma secretase modulators” (Janssen Pharmaceuticals, Inc., priority 2009, dated 2014):
pIC50: −log10 of the molar value.

Legend:
Type in all cases: cell-based
Aβ42 [1] = test: Screening for γ-secretase-modulating activity, Method 1: Aβ42 sandwich ELISA on SKNBE2 cell media; conditions: SKNBE2 cells carrying APP 695 wild type
Description: (§1) Screening was carried out using SKNBE2 cells carrying the APP 695—wild type, grown in Dulbecco's Modified Eagle's Medium/Nutrient mixture F-12 (DMEM/NUT-mix F-12) (HAM) provided by Gibco (cat no. 31330-38) containing 5% Serum/Fe supplemented with 1% non-essential amino acids. Cells were grown to near confluency.
The screening was performed using the assay as described in Citron et al (1997) Nature Medicine 3: 67. Briefly, cells were plated in a 96-well plate at about 10^5 cells/ml one day prior to addition of compounds. Compounds were added to the cells in Ultraculture (Lonza, BE12-725F) supplemented with 1% glutamine (Invitrogen, 25030-024) for 18 hours. The media were assayed by two sandwich ELISAs, for Aβ42 and Aβtotal. Toxicity of the compounds was assayed by WST-1 cell proliferation reagent (Roche, 1 644 807) according to the manufacturer's protocol.
To quantify the amount of Aβ42 in the cell supernatant, commercially available Enzyme-Linked-Immunosorbent-Assay (ELISA) kits were used (Innotest® β-Amyloid(1-42), Innogenetics N.V., Ghent, Belgium). The Aβ42 ELISA was performed essentially according to the manufacturer's protocol. Briefly, the standards (dilutions of synthetic Aβ1-42) were prepared in polypropylene Eppendorf with final concentrations of 8000 down to 3.9 pg/ml (1/2 dilution step). Samples, standards and blanks (100 μl) were added to the anti-Aβ42-coated plate supplied with the kit (the capture antibody selectively recognizes the C-terminal end of the antigen). The plate was allowed to incubate 3 h at 25° C. in order to allow formation of the antibody-amyloid complex. Following this incubation and subsequent wash steps a selective anti-Aβ-antibody conjugate (biotinylated 3D6) was added and incubated for a minimum of 1 hour in order to allow formation of the antibody-Amyloid-antibody-complex. After incubation and appropriate wash steps, a Streptavidine-Peroxidase-Conjugate was added, followed 30 minutes later by an addition of 3,3′,5,5′-tetramethylbenzidine (TMB)/peroxide mixture, resulting in the conversion of the substrate into a coloured product. This reaction was stopped by the addition of sulfuric acid (0.9 N) and the colour intensity was measured by means of photometry with an ELISA-reader with a 450 nm filter.
To obtain the values reported in Table 3a, the sigmoidal dose response curves were analysed by computerised curve-fitting, with percent of inhibition plotted against compound concentration. A 4-parameter equation (model 205) in XLfit was used to determine the IC50. The top and the bottom of the curve were fixed to 100 and 0, respectively, and the hill slope was fixed to 1. The IC50 represents the concentration of a compound that is required for inhibiting a biological effect by 50% (Here, it is the concentration where Aβ peptide level is reduced by 50%).
(§2) To obtain the values reported in Table 3b, the data were calculated as percentage of the maximum amount of amyloid Beta 42 measured in the absence of the test compound. The sigmoidal dose response curves were analyzed using non-linear regression analysis with percentage of the control plotted against the log concentration of the compound. A 4-parameter equation was used to determine the IC50. The values reported in Table 3b are averaged IC50 values.

Aβ42 [2] = test: Screening for γ-secretase-modulating activity, Method 2: Aβ42 Alphalisa on SKNBE2 cell supernatant; conditions: Method 2, Table 3c, SKNBE2 cells carrying APP 695 wild type, overnight incubation
Description: as §1, with “Invitrogen” for “Gibco”, “10371-029)” for “31330-38)”, “acids, 1-glutamine 2 mM, Hepes 15 mM, penicillin 50 U/ml (units/ml) en streptomycin 50 μg/ml.” for “acids.”
(§3) The screening was performed using a modification of the assay as described in Citron et al (1997) Nature Medicine 3: 67. Briefly, cells were plated in a 384-well plate at 10^4 cells/well in Ultraculture (Lonza, BE12-725F) supplemented with 1% glutamine (Invitrogen, 25030-024), 1% non-essential amino acid (NEAA), penicillin 50 U/ml en streptomycin 50 μg/ml in the presence of test compound at different test concentrations. The cell/compound mixture was incubated overnight at 37° C., 5% CO2. The next day the media were assayed by two sandwich immuno-assays, for Aβ42 and Aβtotal.
(§4) Aβtotal and Aβ42 concentrations were quantified in the cell supernatant using the Aphalisa technology (Perkin Elmer). Alphalisa is a sandwich assay using biotinylated antibody attached to streptavidin coated donorbeads and antibody conjugated to acceptor beads. In the presence of antigen, the beads come into close proximity. The excitation of the donor beads provokes the release of singlet oxygen molecules that trigger a cascade of energy transfer in the acceptor beads, resulting in light emission. To quantify the amount of Aβ42 in the cell supernatant, monoclonal antibody specific to the C-terminus of Aβ42 (JRF/cAβ42/26) was coupled to the receptor beads and biotinylated antibody specific to the N-terminus of Aβ (JRF/AβN/25) was used to react with the donor beads. To quantify the amount of Aβtotal in the cell supernatant, monoclonal antibody specific to the N-terminus of Aβ (JRF/AβN/25) was coupled to the receptor beads and biotinylated antibody specific to the mid region of Aβ (biotinylated 4G8) was used to react with the donor beads.
as §2, with “3c,” for “3b,”, “IC50.” for “IC50. The values reported in Table 3b are averaged IC50 values.”

Aβtotal = test: Screening for γ-secretase-modulating activity, Method 2: Aβtotal Alphalisa on SKNBE2 cell supernatant; conditions: Method 2, Table 3c, SKNBE2 cells carrying APP 695 wild type, overnight incubation
Description: as §1, with “Invitrogen” for “Gibco”, “10371-029)” for “31330-38)”, “acids, 1-glutamine 2 mM, Hepes 15 mM, penicillin 50 U/ml (units/ml) en streptomycin 50 μg/ml.” for “acids.”
as §3, §4
as §2, with “3c,” for “3b,”, “IC50.” for “IC50. The values reported in Table 3b are averaged IC50 values.”

[3] = Table 3a, 18 hours, XLfit, top/bottom fixed to 100 and 0, hill slope 1
[4] = Table 3b, non-linear regression of % of control, averaged IC50 values

Row | SMILES | pIC50 (Aβ42 [1]; [3]) | pIC50 (Aβ42 [1]; [4]) | pIC50 (Aβ42 [2]) | pIC50 (Aβtotal) | pIC50 (Aβ42 [2]; Homo sapiens) | pIC50 (Aβtotal; Homo sapiens)
1 | Cc1ncn(-c2ccc(Nc3cc(C(F)(F)F)cc4c3nc(-c3ccc(F)cc3)n4C)cc2)n1 [Compound 69] | 6.97 | 6.93 | 6.38 | < 5.00 |  | 
2 | COc1cc(Nc2nccc3c2nc(CC2CC2)n3C)ccc1-n1ncnc1C [Compound 101] | < 5.52 | < 5.52 | 5.23 | < 5.00 |  | 
3 | COc1cccc(-c2nc3c(Nc4ccc(-n5cnc(C)c5)c(OC)n4)cccc3o2)c1 [Compound 152] |  |  | 6.63 | 5.09 |  | 
4 | CCOc1cccc(-c2nc3c(Nc4ccc(-n5cnc(C)c5)c(F)c4)nc(C)cc3n2C)c1 [Compound 153] |  |  | 7.92 | 5.19 |  | 
5 | Cc1cc2c(nc(-c3ccc(F)cc3)n2C)c(Nc2ccc(-n3cc(C)nc3I)c(F)c2)n1 [Compound 154] |  |  |  |  | 7.72 | 6.25
6 | Cc1cn(-c2ccc(Nc3nc(C)cc4c3nc(-c3ccc(F)c(Br)c3)n4C)cc2F)cn1 [Compound 155] |  |  | 8.10 | < 5.00 |  | 
7 | COc1cc(Nc2cncc3c2nc(-c2ccc(F)cc2)n3C)ccc1-n1cnc(C)n1 [Compound 158] |  |  | 6.78 | < 5.00 |  | 
8 | COc1nc(Nc2cccc3c2nc(-c2ccc(F)cc2)n3C)ccc1-n1cnc(C)n1 [Compound 161] |  |  | 8.15 | < 5.00 |  | 
9 | COc1nc(Nc2cccc3c2nc(-c2ccc(C(F)(F)F)cc2)n3C)ccc1-n1cnc(C)c1 [Compound 168] |  |  | 8.10 | 5.11 |  | 
10 | COc1nc(Nc2cccc3c2nc(-c2ccc(F)c(I)c2)n3C)ccc1-n1cnc(C)c1 [Compound 169] |  |  | 8.30 | < 5.00 |  | 
11 | COc1nc(Nc2cccc3c2nc(-c2ccccc2OC(F)(F)F)n3C)ccc1-n1cnc(C)c1 [Compound 170] |  |  | 7.44 | 5.04 |  | 
12 | COc1nc(Nc2cccc3c2nc(-c2cccc(F)c2)n3C)ccc1-n1cnc(C)c1 [Compound 171] |  |  | 7.57 | < 5.00 |  | 
13 | COc1nc(Nc2cccc3c2nc(-c2ccccc2C(F)(F)F)n3C)ccc1-n1cnc(C)c1 [Compound 172] |  |  | 7.64 | < 5.00 |  | 
14 | COc1nc(Nc2cccc3c2nc(-c2cccc(N(C)C)c2)n3C)ccc1-n1cnc(C)c1 [Compound 173] |  |  | 7.70 | 5.10 |  | 
15 | COc1nc(Nc2cccc3c2nc(-c2ccc(F)c(F)c2)n3C)ccc1-n1cnc(C)c1 [Compound 175] |  |  | 7.68 | < 5.00 |  | 
16 | COc1nc(Nc2cccc3c2nc(-c2cccc(F)c2F)n3C)ccc1-n1cnc(C)c1 [Compound 176] |  |  | 7.64 | < 5.00 |  | 
17 | COc1cccc(-c2nc3c(Nc4ccc(-n5cnc(C)c5)c(OC)n4)cccc3n2C)c1 [Compound 177] |  |  | 7.70 | 5.05 |  | 
18 | COc1ccc(-c2nc3c(Nc4ccc(-n5cnc(C)c5)c(OC)n4)cccc3n2C)cc1 [Compound 178] |  |  | 7.64 | < 5.00 |  | 
19 | CCOc1cccc(-c2nc3c(Nc4ccc(-n5cnc(C)c5)c(OC)n4)cccc3n2C)c1 [Compound 179] |  |  | 7.96 | 5.10 |  | 
20 | COc1ccc(F)c(-c2nc3c(Nc4ccc(-n5cnc(C)c5)c(OC)n4)cccc3n2C)c1 [Compound 180] |  |  | 7.74 | < 5.00 |  | 

Row | SMILES | pIC50 (Aβ42 [1]; [3]) | pIC50 (Aβ42 [1]; [4]) | pIC50 (Aβ42 [2]) | pIC50 (Aβtotal) | pIC50 (Aβ42 [2]; Homo sapiens) | pIC50 (Aβtotal; Homo sapiens)
21 | COc1ccc(-c2nc3c(Nc4ccc(-n5cnc(C)c5)c(OC)n4)cccc3n2C)c(F)c1 [Compound 182] |  |  | 7.41 | < 5.00 |  | 
22 | COc1cc(-c2nc3c(Nc4ccc(-n5cnc(C)c5)c(OC)n4)cccc3n2C)cc(C(F)(F)F)c1 [Compound 183] |  |  | 8.00 | 5.04 |  | 
23 | COc1nc(Nc2cccc3c2nc(-c2ccc(F)cc2C)n3C)ccc1-n1cnc(C)c1 [Compound 185] |  |  | 7.60 | < 5.00 |  | 
24 | COc1cc(F)cc(-c2nc3c(Nc4ccc(-n5cnc(C)c5)c(OC)n4)cccc3n2C)c1 [Compound 188] |  |  | 7.85 | 5.08 |  | 
25 | COc1nc(Nc2cccc3c2nc(-c2ccc(F)cc2F)n3C)ccc1-n1cnc(C)c1 [Compound 190] |  |  | 7.59 | < 5.00 |  | 
26 | COc1nc(Nc2cccc3c2nc(-c2ccc(OC(F)(F)F)cc2)n3C)ccc1-n1cnc(C)c1 [Compound 191] |  |  | 7.74 | < 5.00 |  | 
27 | COc1nc(Nc2cccc3c2nc(-c2ccc(F)c(C(F)(F)F)c2)n3C)ccc1-n1cnc(C)c1 [Compound 192] |  |  | 7.89 | 5.05 |  | 
28 | COc1nc(Nc2cccc3c2nc(-c2ccccc2F)n3C)ccc1-n1cnc(C)c1 [Compound 193] |  |  | 7.41 | 5.15 |  | 
29 | COc1ccc(-c2nc3c(Nc4ccc(-n5cnc(C)c5)c(OC)n4)cccc3n2C)c(C)c1 [Compound 194] |  |  | 7.66 | < 5.00 |  | 
30 | COc1nc(Nc2cccc3c2nc(-c2cc(C(F)(F)F)ccc2C)n3C)ccc1-n1cnc(C)c1 [Compound 195] |  |  | 7.60 | 5.19 |  | 
31 | COc1nc(Nc2cccc3c2nc(-c2ccccc2)n3C)ccc1-n1cnc(C)c1 [Compound 196] |  |  | 7.72 | 5.07 |  | 
32 | COc1nc(Nc2cccc3c2nc(-c2ccc(N(C)C)cc2)n3C)ccc1-n1cnc(C)c1 [Compound 197] |  |  | 7.46 | 5.08 |  | 
33 | COc1nc(Nc2cccc3c2nc(-c2cccc(C#N)c2)n3C)ccc1-n1cnc(C)c1 [Compound 198] |  |  | 7.32 | < 5.00 |  | 
34 | COc1cc(Nc2cc(C3CC3)nc3c2nc(-c2ccc(F)cc2)n3C)ccc1-n1cnc(C)n1 [Compound 199] |  |  | 7.89 | < 5.00 |  | 
35 | COc1cc(Nc2ccnc3c2nc(-c2ccc(F)cc2)n3C)ccc1-n1cnc(C)n1 [Compound 200] |  |  | 7.40 | < 5.00 |  | 
36 | COc1nc(Nc2ccnc3c2nc(-c2ccc(F)cc2)n3C)ccc1-n1cnc(C)c1 [Compound 201] |  |  | 8.40 | < 5.00 |  | 
37 | COc1nc(Nc2cc(C)nc3c2nc(-c2ccc(F)cc2)n3C)ccc1-n1cnc(C)c1 [Compound 203] |  |  | 8.40 | < 5.00 |  | 
38 | COc1cc(Nc2ccc(-n3cnc(C)c3)c(F)c2)c2nc(-c3ccc(F)cc3)n(C)c2n1 [Compound 204] |  |  | 7.85 | < 5.00 |  | 
39 | Cc1cn(-c2ccc(Nc3ccnc4c3nc(-c3ccc(F)cc3)n4C)cc2F)cn1 [Compound 205] |  |  | 7.20 | < 5.00 |  | 
